Data set [1] relates to panel of melanoma cell lines (A375, M14, RPMI7951). As to the kind of experiment: Antiproliferative activity, panel of melanoma cell lines. The format is cell-based, human. As to conditions: for pIC50: Homo sapiens, 72 h, read-out: IC50 values, range over the melanoma cell lines.
Data set [2] concerns docetaxel-resistant DU145/TxR prostate cancer cell line. As to the kind of experiment: Cytotoxicity. It counts as cell-based. As to conditions: at concentrations up to 1 μM.
Another data set concerns A375 melanoma xenograft. It counts as in vivo. The following applies: doses up to 30 mg/kg i.p., nude mice.
For the next data set, the target named is Bovine brain tubulin (Bos taurus, UniProt P81947+Q6B856). The data set can be described thus: Tubulin polymerization assay. The format is biochemical. As to conditions: 10 μM compound, absorbance at 340 nm, 37 °C; vehicle control Vmax = 27.

pIC50: −log10 of the molar value.

Sequence of Bovine brain tubulin (Q6B856 whole entry): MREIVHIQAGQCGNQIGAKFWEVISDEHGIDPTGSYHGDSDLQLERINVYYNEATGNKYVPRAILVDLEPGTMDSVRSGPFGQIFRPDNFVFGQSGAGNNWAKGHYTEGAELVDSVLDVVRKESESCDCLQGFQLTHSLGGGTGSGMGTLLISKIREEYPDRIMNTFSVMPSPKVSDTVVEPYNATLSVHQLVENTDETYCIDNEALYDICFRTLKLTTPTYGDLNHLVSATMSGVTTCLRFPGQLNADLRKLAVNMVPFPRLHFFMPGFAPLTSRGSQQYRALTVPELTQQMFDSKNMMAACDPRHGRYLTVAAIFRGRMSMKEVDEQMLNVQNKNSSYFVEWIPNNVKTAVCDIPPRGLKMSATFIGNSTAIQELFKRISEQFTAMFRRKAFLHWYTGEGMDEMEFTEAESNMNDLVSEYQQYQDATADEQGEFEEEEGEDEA
Sequence of Bovine brain tubulin (P81947 whole entry): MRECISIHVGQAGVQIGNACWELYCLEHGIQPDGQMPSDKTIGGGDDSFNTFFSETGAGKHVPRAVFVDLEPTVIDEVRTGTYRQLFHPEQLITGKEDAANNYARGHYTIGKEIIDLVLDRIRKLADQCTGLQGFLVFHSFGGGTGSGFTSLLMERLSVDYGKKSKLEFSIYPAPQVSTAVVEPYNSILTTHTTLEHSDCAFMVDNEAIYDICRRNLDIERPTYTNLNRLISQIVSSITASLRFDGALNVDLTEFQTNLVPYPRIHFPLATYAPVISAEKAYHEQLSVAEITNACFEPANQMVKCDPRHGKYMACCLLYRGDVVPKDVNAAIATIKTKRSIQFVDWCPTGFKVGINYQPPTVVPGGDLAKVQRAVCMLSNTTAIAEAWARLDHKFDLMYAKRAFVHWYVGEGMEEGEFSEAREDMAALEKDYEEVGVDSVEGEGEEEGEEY

A word on the pIC50: it is the IC50 on a negative log10 scale, so that one unit is a factor of ten. On to `COc1cc(C(=O)c2c[nH]c(-c3c[nH]c4ccccc34)n2)cc2c1OCCCO2` [13e, (2-(1H-Indol-3-yl)-1H-imidazol-5-yl)(9-methoxy-3,4-dihydro-2H-benzo[b][1,4]dioxepin-7-yl)methanone], for which the negative-log IC50 (pIC50) in data set [1] was 7.32 to 7.49.
Consider `CC(=O)O[C@H]1C(=O)[C@@]2(C)[C@H]([C@H](OC(=O)c3ccccc3)[C@]3(O)C[C@H](OC(=O)[C@H](O)[C@@H](NC(=O)c4ccccc4)c4ccccc4)C(C)=C1C3(C)C)[C@]1(OC(C)=O)CO[C@@H]1C[C@@H]2O` [paclitaxel], for which, in data set [2], the “effect in DU145/TxR cells” value is listed as “no effect was observed at all”.
Turning to `O=C(c1ccc2c(c1)OCCO2)c1c[nH]c(-c2c[nH]c3ccccc23)n1` [13a, (2-(1H-Indol-3-yl)-1H-imidazol-5-yl)(2,3-dihydrobenzo[b][1,4]-dioxin-6-yl)methanone], in data set [1], the negative-log IC50 (pIC50) was 6.66 to 6.92.
In the case of `COc1cc(C(=O)c2c[nH]c(-c3c[nH]c4ccccc34)n2)cc2c1OC=CO2` [13f, (2-(1H-Indol-3-yl)-1H-imidazol-5-yl)(8-methoxybenzo[b][1,4]-diOXin-6-yl)methanone], the “apparent toxicity (mouse weights and activities)” value in the data set with A375 melanoma xenograft is “without causing apparent toxicity”. The “tubulin polymerization Vmax” value at Bovine brain tubulin amounted to 0. Further, the pIC50 in data set [1] is 8.48 to 8.96.
For the compound `COc1cc(C(=O)c2c[nH]c(-c3c[nH]c4ccccc34)n2)cc2c1OCO2` [13d, (2-(1H-Indol-3-yl)-1H-imidazol-5-yl)(7-methoxybenzo[d][1,3]-dioxol-5-yl)methanone], the pIC50 in data set [1] is 8.25 to 8.46. The “fold more active than 13b” value in data set [1] (antiproliferative IC50 compared with 13b) came to 30 fold. In data set [1] (antiproliferative IC50 compared with 13c), the “fold more potent than 13c” value is ~ 4 fold.
In the case of `COc1cc(C(=O)c2c[nH]c(-c3cccc4[nH]ccc34)n2)cc2c1OC=CO2` [compound 19, (2-(1H-Indol-4-yl)-1H-imidazol-5-yl)(8-methoxybenzo[b][1,4]-diOXin-6-yl)methanone], in data set [1] (compared with 13f), the “fold reduced antiproliferative activity compared to 13f” value is recorded as ~ 11 fold.
`COc1cc(C(=O)c2c[nH]c(-c3c[nH]c4cccc(C)c34)n2)cc2c1OC=CO2` [compound 25, (8-Methoxybenzo[b][1,4]dioxin-6-yl) (2-(4-methyl-1H-indol-3-yl)-1H-imidazol-5-yl)methanone]: the pIC50 in data set [1] was 8.06 to 8.21.
In the case of `COc1cc(C(=O)c2c[nH]c(-c3c[nH]c4ccccc34)n2)cc2c1OCCO2` [13c, (2-(1H-Indol-3-yl)-1H-imidazol-5-yl)(8-methoxy-2,3-dihydrobenzo[b][1,4]dioxin-6-yl)methanone], the pIC50 in data set [1] is 7.53 to 7.95.
